Assay results: article PMC4585259 (Frontiers in Pharmacology, 2015)
Read-outs that look alike come from different tables or passages of the source.

Target: T1, rNav1.2 sodium channels (Rattus norvegicus, UniProt P04775)
T1 construct: host or cells: HEK-293
Assay: QPatch automated patch clamp, inhibition of sodium currents evoked by 5 Hz trains at three extracellular pH values
Type: cell-based
Conditions: for class of pH-dependence pattern (cluster analysis): Ward's method on 18 variables of affinity, reversibility, onset; for effect of alkalic pH on onset/offset kinetics: in words; for τoffset / τonset: concentration (lidocaine 300 μM, memantine 30 μM); for inhibition: 100 μM
Protocol: HEK-293 cells stably expressing rNav1.2 sodium channels were obtained from NeuroSearch (Ballerup, Denmark). The cells were grown in Dulbecco's modified Eagle medium supplemented with 10% FBS. Prior to use, the cells were trypsinized and subsequently kept in suspension in the QPatch cell storage facility in CHO-S- SFM-II medium.
Composition of the extracellular solution was: (in mM): 140 NaCl, 3 KCl, 1 CaCl2 1 MgCl2, 0.1 CdCl2, 20 TEA-Cl, 5 HEPES, adjusted to pH 7.3, Osmolality: 320 mOsm. […] Drugs were synthesized in Gedeon Richter Plc. […] The full list of drugs, with their three-letter codes, concentration, as well as their main therapeutic indication and main mechanism of action are shown in Table 1. […] The choice of concentrations used in this study may seem unusually high.
Data were sampled at a frequency of 25 kHz and filtered at 5 kHz. Junction potential was calculated to be −11 mV and was corrected for. […] Cells having membrane resistance < 500 MOhm, series resistance > 9 MOhm, or capacitance > 22 pF were excluded from analysis. The experimental protocol was also identical to the one used in our previous study: sodium channels were activated by 5 Hz trains of 5 depolarizations (−90 to −10 mV) repeated in every 20 s. In this study, however, the same control–drug-application–washout sequence was repeated four times: at neutral, acidic, alkalic, and again neutral pH. The peak amplitudes of sodium currents throughout the whole experiment are shown plotted against time in Figure 1 and Supplementary Figure 1.
Initial analysis, including subtraction of leak and capacitive artifacts, as well as peak detection were done in the QPatch software. […] All experiments were normalized to the amplitude of the current evoked by the first depolarization of the last train under control conditions. […] For all four drug applications in an experiment, apparent affinity, onset and offset time constants as well as reversibility values were calculated. […] (This method is equivalent to applying the Lineweaver-Burk plot method using a single concentration.) Reversibility values were calculated from control (c), inhibited (i), and wash-out (w) amplitudes as follows: Reversibility = (w-i)/(c-i). Reversibility values should not be regarded as experimental platform-independent properties of compounds. […] However, reversibility values are a valuable source of information regarding physicochemical differences between individual drugs, or between effects of the same drug under different extracellular pH conditions. Onset and offset time constants were determined by single exponential fitting to individual experiments. For neutral pH numerical data were given as the average of the data from the first and the last drug applications. Thin black lines on Figure 1 and Supplemental Figure 1 show the average of five fitted exponentials, (not the exponential fitted to the averaged normalized amplitudes). The numerical values of apparent affinity, onset and offset time constants and reversibility are shown in Table 2, and their relative position is illustrated in Figure 2. Affinity and time constant values were logarithmically transformed for statistics, therefore we show their geometric mean. For recovery data no transformation was done, and we show arithmetic mean values. Significance values were calculated using paired, two-tailed Student's t-test based on five pairs of apparent affinity (log transform), time constant (log transform), or reversibility values obtained from five individual experiments. Because of the large number of comparisons in this study, we accepted p < 0.01 as significant. Cluster analysis was done using Ward's minimum variance method, with Euclidean distance measure. Data were normalized by subtracting the mean (after logarithmic transformation in the case of apparent affinity and time constants), and dividing by the standard deviation.

[1] = pH 6.0, single concentration (lidocaine 300 μM, memantine 30 μM), geometric mean of 5, read-out: apparent affinity
[2] = pH 7.3, single concentration (lidocaine 300 μM, memantine 30 μM), geometric mean of 5, read-out: apparent affinity
[3] = pH 8.6, single concentration (lidocaine 300 μM, memantine 30 μM), geometric mean of 5, read-out: apparent affinity
[4] = pH=6.0, cc 300 mM, read-out: Apparent Affinity
[5] = pH=7.3, cc 300 mM, read-out: Apparent Affinity
[6] = pH=8.6, cc 300 mM, read-out: Apparent Affinity

T1 sequence (P04775 whole entry): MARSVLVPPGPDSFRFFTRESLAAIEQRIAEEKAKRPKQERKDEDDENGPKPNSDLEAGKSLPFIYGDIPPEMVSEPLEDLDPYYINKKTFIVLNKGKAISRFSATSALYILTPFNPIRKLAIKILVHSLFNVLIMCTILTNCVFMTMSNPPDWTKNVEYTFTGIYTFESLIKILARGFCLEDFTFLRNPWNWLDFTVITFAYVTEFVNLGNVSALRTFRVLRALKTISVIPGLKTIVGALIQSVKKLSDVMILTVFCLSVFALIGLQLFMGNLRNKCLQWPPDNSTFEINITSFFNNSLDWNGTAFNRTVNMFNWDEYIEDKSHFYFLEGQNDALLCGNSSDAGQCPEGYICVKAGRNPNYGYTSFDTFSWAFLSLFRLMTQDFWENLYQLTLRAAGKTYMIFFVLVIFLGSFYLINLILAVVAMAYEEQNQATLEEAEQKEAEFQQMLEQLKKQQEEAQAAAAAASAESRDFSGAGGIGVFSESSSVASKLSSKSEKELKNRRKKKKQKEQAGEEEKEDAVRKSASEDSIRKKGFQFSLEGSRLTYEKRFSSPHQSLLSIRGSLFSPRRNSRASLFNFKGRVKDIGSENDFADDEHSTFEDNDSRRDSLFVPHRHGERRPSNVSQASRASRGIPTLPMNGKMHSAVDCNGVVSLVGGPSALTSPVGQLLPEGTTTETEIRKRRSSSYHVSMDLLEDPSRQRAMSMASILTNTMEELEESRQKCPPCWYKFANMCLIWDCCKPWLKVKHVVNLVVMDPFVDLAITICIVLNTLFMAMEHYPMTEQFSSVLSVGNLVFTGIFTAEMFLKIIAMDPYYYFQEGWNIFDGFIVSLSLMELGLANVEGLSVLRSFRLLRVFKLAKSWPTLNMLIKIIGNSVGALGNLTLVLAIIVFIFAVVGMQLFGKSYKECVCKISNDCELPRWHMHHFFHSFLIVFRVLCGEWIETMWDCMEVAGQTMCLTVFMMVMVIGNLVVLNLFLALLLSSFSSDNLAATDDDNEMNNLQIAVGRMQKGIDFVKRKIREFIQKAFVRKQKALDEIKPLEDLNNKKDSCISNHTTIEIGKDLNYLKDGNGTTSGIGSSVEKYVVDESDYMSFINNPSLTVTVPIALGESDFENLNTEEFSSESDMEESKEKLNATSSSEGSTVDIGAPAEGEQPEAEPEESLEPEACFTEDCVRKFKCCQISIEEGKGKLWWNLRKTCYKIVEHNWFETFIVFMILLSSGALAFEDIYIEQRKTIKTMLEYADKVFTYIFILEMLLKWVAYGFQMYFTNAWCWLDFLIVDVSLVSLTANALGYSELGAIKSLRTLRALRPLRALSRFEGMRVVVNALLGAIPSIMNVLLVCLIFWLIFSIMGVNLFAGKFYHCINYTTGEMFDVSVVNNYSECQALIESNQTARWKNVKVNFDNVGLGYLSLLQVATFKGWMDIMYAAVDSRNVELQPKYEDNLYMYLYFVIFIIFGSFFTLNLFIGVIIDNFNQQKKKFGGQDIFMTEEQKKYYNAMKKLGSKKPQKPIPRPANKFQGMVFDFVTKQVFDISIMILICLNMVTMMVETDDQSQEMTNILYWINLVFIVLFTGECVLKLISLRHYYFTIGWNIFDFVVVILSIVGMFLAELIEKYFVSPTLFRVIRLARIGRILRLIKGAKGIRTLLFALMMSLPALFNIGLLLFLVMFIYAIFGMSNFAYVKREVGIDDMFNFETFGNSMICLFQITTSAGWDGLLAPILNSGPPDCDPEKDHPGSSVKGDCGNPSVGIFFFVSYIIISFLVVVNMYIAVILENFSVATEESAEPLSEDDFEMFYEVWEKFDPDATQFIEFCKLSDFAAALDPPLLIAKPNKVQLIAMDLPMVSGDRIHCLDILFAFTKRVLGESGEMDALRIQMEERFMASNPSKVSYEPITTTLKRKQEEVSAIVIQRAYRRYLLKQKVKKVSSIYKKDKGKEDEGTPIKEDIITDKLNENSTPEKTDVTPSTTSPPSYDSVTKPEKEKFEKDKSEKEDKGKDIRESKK

For `Fc1ccc([C@@H]2CCNC[C@H]2COc2ccc3c(c2)OCO3)cc1` [paroxetine], the “class of pH-dependence pattern (cluster analysis)” value (“class of pH-dependence pattern” below) was “Class C”, the “effect of alkalic pH on onset/offset kinetics” value was “acceleration of onset” and the “Ratio Reversibility” value (pH 6.0/7.3, cc 30 mM) was 1.674. For the same compound, the “Ratio Tau Offset” value (pH 6.0/7.3, cc 30 mM) was 0.896, the “Ratio Tau Onset” value (pH 6.0/7.3, cc 30 mM) was 1.411 and the “log Ratio App Aff” value (pH 6.0/7.3, cc 30 mM) was 0.413. The “Ratio Reversibility” value (pH 6.0/8.6, cc 30 mM) was 6.394, the “Ratio Tau Offset” value (pH 6.0/8.6, cc 30 mM) was 1.191 and the “Ratio Tau Onset” value (pH 6.0/8.6, cc 30 mM) was 2.000. The “log Ratio App Aff” value (pH 6.0/8.6, cc 30 mM) was 0.762, the τoffset (pH 6.0) was 33.83 s and the τonset (pH 6.0) was 47.12 s. For the same compound, the Kd [1] was 49.6 µM, the “Ratio Reversibility” value (pH 7.3/8.6, cc 30 mM) was 3.820 and the “Ratio Tau Offset” value (pH 7.3/8.6, cc 30 mM) was 1.329. For the same compound, the “Ratio Tau Onset” value (pH 7.3/8.6, cc 30 mM) was 1.418, the “log Ratio App Aff” value (pH 7.3/8.6, cc 30 mM) was 0.349 and the τoffset (pH 7.3) was 37.75 s. It also gave a τonset (pH 7.3) of 33.39 s, a Kd [2] of 19.2 µM and a τoffset (pH 8.6) of 28.40 s. For the same compound, the τonset (pH 8.6) was 23.55 s, the Kd [3] was 8.57 µM and the Reversibility (pH=6.0, cc 30 mM) was 0.65. For the same compound, the Kd (pH=6.0, cc 30 mM, read-out: Apparent Affinity) was 49.6 µM, the Reversibility (pH=7.3, cc 30 mM) was 0.39 and the Kd (pH=7.3, cc 30 mM, read-out: Apparent Affinity) was 19.2 µM. It also gave a Reversibility (pH=8.6, cc 30 mM) of 0.10 and a Kd (pH=8.6, cc 30 mM, read-out: Apparent Affinity) of 8.57 µM.

In the case of `C[Si](C)(Cc1ccc(F)cc1)CN1CCCCC1` [silperisone], the inhibition (pH 6.0) is reported as 23%, the inhibition (pH 7.3) is reported as 42% and the inhibition (pH 8.6) is reported as 79%. The “class of pH-dependence pattern” value was “Class F”, the “Ratio Reversibility” value (pH 6.0/7.3, cc 100 mM) was 0.877 and the “Ratio Tau Offset” value (pH 6.0/7.3, cc 100 mM) was 1.240. For the same compound, the “Ratio Tau Onset” value (pH 6.0/7.3, cc 100 mM) was 0.900, the “log Ratio App Aff” value (pH 6.0/7.3, cc 100 mM) was 0.387 and the “Ratio Reversibility” value (pH 6.0/8.6, cc 100 mM) was 1.714. For the same compound, the “Ratio Tau Offset” value (pH 6.0/8.6, cc 100 mM) was 0.894, the “Ratio Tau Onset” value (pH 6.0/8.6, cc 100 mM) was 1.154 and the “log Ratio App Aff” value (pH 6.0/8.6, cc 100 mM) was 1.096. For the same compound, the τoffset (pH 6.0) was 18.60 s, the τonset (pH 6.0) was 9.00 s and the Kd [1] was 334 µM. For the same compound, the “Ratio Reversibility” value (pH 7.3/8.6, cc 100 mM) was 1.955, the “Ratio Tau Offset” value (pH 7.3/8.6, cc 100 mM) was 0.721 and the “Ratio Tau Onset” value (pH 7.3/8.6, cc 100 mM) was 1.282. The “log Ratio App Aff” value (pH 7.3/8.6, cc 100 mM) was 0.709, the τoffset (pH 7.3) was 15.00 s and the τonset (pH 7.3) was 10.00 s. The Kd [2] was 137 µM, the τoffset (pH 8.6) was 20.80 s and the τonset (pH 8.6) was 7.80 s. It also gave a Kd [3] of 26.8 µM, a Reversibility (pH=6.0, cc 100 mM) of 0.80 and a Kd (pH=6.0, cc 100 mM, read-out: Apparent Affinity) of 334 µM. It also gave a Reversibility (pH=7.3, cc 100 mM) of 0.92, a Kd (pH=7.3, cc 100 mM, read-out: Apparent Affinity) of 137 µM and a Reversibility (pH=8.6, cc 100 mM) of 0.47. For the same compound, the Kd (pH=8.6, cc 100 mM, read-out: Apparent Affinity) was 26.8 µM.

With `Nc1nnc(-c2cccc(Cl)c2Cl)c(N)n1` [lamotrigine] the “class of pH-dependence pattern” value was “Class A”, the “Ratio Reversibility” value (pH 6.0/7.3, cc 300 mM) was 0.765 and the “Ratio Tau Offset” value (pH 6.0/7.3, cc 300 mM) was 1.075. The “Ratio Tau Onset” value (pH 6.0/7.3, cc 300 mM) was 0.877, the “log Ratio App Aff” value (pH 6.0/7.3, cc 300 mM) was -0.277 and the “Ratio Reversibility” value (pH 6.0/8.6, cc 300 mM) was 0.930. The “Ratio Tau Offset” value (pH 6.0/8.6, cc 300 mM) was 0.809, the “Ratio Tau Onset” value (pH 6.0/8.6, cc 300 mM) was 0.713 and the “log Ratio App Aff” value (pH 6.0/8.6, cc 300 mM) was -0.398. It also gave a τoffset (pH 6.0) of 14.40 s, a τonset (pH 6.0) of 11.40 s and a Kd [1] of 329 µM. For the same compound, the “Ratio Reversibility” value (pH 7.3/8.6, cc 300 mM) was 1.215, the “Ratio Tau Offset” value (pH 7.3/8.6, cc 300 mM) was 0.753 and the “Ratio Tau Onset” value (pH 7.3/8.6, cc 300 mM) was 0.813. The “log Ratio App Aff” value (pH 7.3/8.6, cc 300 mM) was -0.121, the τoffset (pH 7.3) was 13.40 s and the τonset (pH 7.3) was 13.00 s. It also gave a Kd [2] of 622 µM, a τoffset (pH 8.6) of 17.80 s and a τonset (pH 8.6) of 16.00 s. The Kd [3] was 821 µM, the Reversibility (pH=6.0, cc 300 mM) was 0.74 and the Kd [4] was 329 µM. For the same compound, the Reversibility (pH=7.3, cc 300 mM) was 0.96, the Kd [5] was 622 µM and the Reversibility (pH=8.6, cc 300 mM) was 0.79. For the same compound, the Kd [6] was 821 µM.

In the case of `Cc1cccc(C)c1OCC(C)N` (stereo not shown) [mexiletine], the “class of pH-dependence pattern” value is reported as “Class F”, the “effect of alkalic pH on onset/offset kinetics” value is reported as “acceleration of onset” and the “Ratio Reversibility” value (pH 6.0/7.3, cc 300 mM) is reported as 0.987. For the same compound, the “Ratio Tau Offset” value (pH 6.0/7.3, cc 300 mM) was 1.071, the “Ratio Tau Onset” value (pH 6.0/7.3, cc 300 mM) was 1.162 and the “log Ratio App Aff” value (pH 6.0/7.3, cc 300 mM) was 0.268. For the same compound, the “Ratio Reversibility” value (pH 6.0/8.6, cc 300 mM) was 1.300, the “Ratio Tau Offset” value (pH 6.0/8.6, cc 300 mM) was 0.938 and the “Ratio Tau Onset” value (pH 6.0/8.6, cc 300 mM) was 1.411. The “log Ratio App Aff” value (pH 6.0/8.6, cc 300 mM) was 0.786, the τoffset (pH 6.0) was 21.00 s and the τonset (pH 6.0) was 15.80 s. The Kd [1] was 350 µM, the “Ratio Reversibility” value (pH 7.3/8.6, cc 300 mM) was 1.317 and the “Ratio Tau Offset” value (pH 7.3/8.6, cc 300 mM) was 0.875. The “Ratio Tau Onset” value (pH 7.3/8.6, cc 300 mM) was 1.214, the “log Ratio App Aff” value (pH 7.3/8.6, cc 300 mM) was 0.518 and the τoffset (pH 7.3) was 19.60 s. The τonset (pH 7.3) was 13.60 s, the Kd [2] was 189 µM and the τoffset (pH 8.6) was 22.40 s. For the same compound, the τonset (pH 8.6) was 11.20 s, the Kd [3] was 57.3 µM and the “KD app, effect of acidic medium” value (pH = 6.0 vs neutral, increased KD app = decreased apparent affinity) was “MEM,MEX,TOL↑”. It also gave a Reversibility (pH=6.0, cc 300 mM) of 0.78, a Kd [4] of 350 µM and a Reversibility (pH=7.3, cc 300 mM) of 0.79. It also gave a Kd [5] of 189 µM, a Reversibility (pH=8.6, cc 300 mM) of 0.60 and a Kd [6] of 57.3 µM.
